Legend:
[1] = Stability of formulations (e.g. aqueous suspension concentrates) comprising the solid form; type: physicochemical; conditions: compared between forms
[2] = Stability of the solvate at room temperature (release of solvent, conversion); type: physicochemical
Procedure: (§1) Crystallization of topramezone by evaporation of a solution of topramezone in a mixture of toluene with dichloromethane in the volume ratio 2:1 at temperatures below 30° C., in particular at temperatures in the range from 10 to 30° C. yields an unstable solvate V-S, which comprises 1 mol of toluene per mol of topramezone.
as §1, with “chlorobenzene” for “toluene”, “dichloromethane” for “dichloromethane in the volume ratio 2:1”, “VI-S,” for “V-S,”
Crystallization of topramezone by evaporation of a solution of topramezone in dichloromethane at temperatures below 30° C., in particular at temperatures in the range from 10 to 30° C. yields an unstable solvate VII-S, which comprises dichloromethane.

[3] = Stability of the crystalline modification with regard to conversion into another form; conditions: for stability of the crystalline modification: solid forms of topramezone compared

Row | Structure (SMILES) | stability of the crystalline modification [3] | stability of formulations which comprise the form [1] | other results
1 | Cc1c(C(=O)c2cnn(C)c2O)ccc(S(C)(=O)=O)c1C1=NOCC1 [form VI-S] | lower stability |  | stability of formulations which comprise the form ([1]; listed as solvate VI-S): lower stability; behaviour of the solvate at room temperature ([2]; listed as solvate VI-S): releasing the solvent again and then forms the form II
2 | Cc1c(C(=O)c2cnn(C)c2O)ccc(S(C)(=O)=O)c1C1=NOCC1 [form IV, [3-(4,5-dihydro-3-isoxazolyl)-2-methyl-4-(methylsulfonyl)phenyl]-(5-hydroxy-1-methyl-1H-pyrazol-4-yl)methanone] | lower stability | lower stability | 
3 | Cc1c(C(=O)c2cnn(C)c2O)ccc(S(C)(=O)=O)c1C1=NOCC1 [form I, [3-(4,5-dihydro-3-isoxazolyl)-2-methyl-4-(methylsulfonyl)phenyl]-(5-hydroxy-1-methyl-1H-pyrazol-4-yl)methanone] | stable | markedly higher | stability with regard to conversion into another form ([3]; compared to other solid forms): increased stability
4 | Cc1c(C(=O)c2cnn(C)c2O)ccc(S(C)(=O)=O)c1C1=NOCC1 [form III, [3-(4,5-dihydro-3-isoxazolyl)-2-methyl-4-(methylsulfonyl)phenyl]-(5-hydroxy-1-methyl-1H-pyrazol-4-yl)methanone] | lower stability | lower stability | 
5 | Cc1c(C(=O)c2cnn(C)c2O)ccc(S(C)(=O)=O)c1C1=NOCC1 [form VIII, [3-(4,5-dihydro-3-isoxazolyl)-2-methyl-4-(methylsulfonyl)phenyl]-(5-hydroxy-1-methyl-1H-pyrazol-4-yl)methanone] | lower stability | lower stability | 
6 | Cc1c(C(=O)c2cnn(C)c2O)ccc(S(C)(=O)=O)c1C1=NOCC1 [form V-S] | lower stability |  | stability of formulations which comprise the form ([1]; listed as solvate V-S): lower stability; behaviour of the solvate at room temperature ([2]; listed as solvate V-S): releasing the solvent again and then forms a mixture of the forms II and IV
7 | Cc1c(C(=O)c2cnn(C)c2O)ccc(S(C)(=O)=O)c1C1=NOCC1 [form VII-S] | lower stability |  | stability of formulations which comprise the form ([1]; listed as solvate VII-S): lower stability; behaviour of the solvate at room temperature ([2]; listed as solvate VII-S): releasing the solvent again and then forms the form I
8 | Cc1c(C(=O)c2cnn(C)c2O)ccc(S(C)(=O)=O)c1C1=NOCC1 [form II, [3-(4,5-dihydro-3-isoxazolyl)-2-methyl-4-(methylsulfonyl)phenyl]-(5-hydroxy-1-methyl-1H-pyrazol-4-yl)methanone] | lower stability | lower stability | 

Reference: patent publication US20100197502A1, “Crystalline form of [3-(4,5-dihydro-3-isoxazolyl)-2-methyl-4-(methylsulfonyl)phenyl]-(5-hydroxy-1-methyl-1H-pyrazol-4-yl)methanone” (priority 2007, published 2010)
